In ChEMBL document CHEMBL3507680, “University of Dundee, Gates Library screen for HepG2 cell viability”:

Assay: Human HepG2 cell viability assay in 384 well format
Assay type: toxicity, cell-based
Set-up: dose 125 nL, time 70.5 hour; cytotoxicity at 70.5 h: concentration not given beside the values
Conditions: HepG2 cells, read-out: Inhibition

| Compound | cytotoxicity at 70.5 h |
| --- | --- |
| O=C(CC1CC1)N1Cc2nccn2CC(CN2CCCC2)C1 (stereo unspecified) | 16.9% |
| COc1ccc(C2CC(=O)NCc3nc4ccccn4c32)cn1 (stereo unspecified) | -1.02% |
| COCCc1noc(CN2CCN(c3ccc(OC)cc3)C(=O)C2C)n1 (stereo unspecified) | -15.8% |
| O=C(c1ccc(CN2CCCCC2)cc1)N1Cc2cnn(CCO)c2C1 | 19.3% |
| COC(=O)CNC(=O)c1ccc(OC2CCN(S(C)(=O)=O)CC2)c(Cl)c1 | -4.88% |
| COc1ccc2c(c1)OCC(C(=O)NCc1nc3c(s1)CCCC3)C2 (stereo unspecified) | -8.87% |
| CCn1cncc1Cn1cccc(C(F)(F)F)c1=O | 2.51% |
| Cc1[nH]nc(CCC(=O)NCC2COc3ccccc3C2)c1C (stereo unspecified) | -6.82% |
| CN(C)C(=O)COc1ccccc1CN1CCCC2(C1)CN(C)C(=O)O2 (stereo unspecified) | -7.63% |
| CSCCCNC(=O)C(c1cccc(F)c1)N(C)C (stereo unspecified) | -4.98% |
| Cc1cc(-c2nn(C)c(Cl)c2CN2CCN(C)C(C(=O)O)C2)no1 (stereo unspecified) | -5.8% |
| N[C@@H](C(=O)N1CCN(c2ccccc2Cl)C(=O)C1)c1ccccc1 | -14.1% |
| CCc1nc(CN(C)C(=O)C2CC(=O)N(c3cccc(O)c3)C2)no1 (stereo unspecified) | 3.57% |
| Cc1noc(CN2CC=C(c3cnn(C4CCS(=O)(=O)C4)c3)CC2)n1 (stereo unspecified) | 27.9% |
| COC(=O)N1CCCCC1C(=O)N(C)Cc1cc(-c2cccnc2)no1 (stereo unspecified) | -8.4% |
| CCc1nc(C)c(C(=O)N2CCNCC2C(=O)NCc2ccncc2)o1 (stereo unspecified) | -5.31% |
| CCn1nc(C)c(CCNC(=O)C2CCCN(C(C)=O)C2)c1C (stereo unspecified) | -8.81% |
| c1ccc(C2CN(c3ncnc4[nH]cnc34)CCO2)cc1 (stereo unspecified) | -8.36% |
| CCC[C@H]1CN(S(=O)(=O)c2cc(C)ccc2C)C[C@@H]1N | -0.438% |
| O=C(c1ccc(-c2ccoc2)nc1)N1CCCN(C2CCCCC2)CC1 | -12.9% |
| O=C(NCc1cccnc1N1CCc2ccccc2C1)c1cc(=O)[nH][nH]1 | -3.06% |
| CS(=O)(=O)N1C[C@@H]2CC[C@H](C1)N(C(=O)Cn1nc3ccccc3n1)C2 | 20.9% |
| CCCN(Cc1nc(-c2ccoc2)oc1C)CC1CCCO1 (stereo unspecified) | -6% |

| Compound | cytotoxicity at 70.5 h |
| --- | --- |
| COc1cc(-c2cnnc(NCC3CC3)n2)cc(OC)c1OC | 5.52% |
| O=C1N(Cc2cccc(F)c2F)CCCC1(O)CNCc1ccccc1 (stereo unspecified) | 19.6% |
| CCc1ncc2c(n1)CN(C(=O)CNC(=O)C(C)C)C2 | 22.7% |
| CN1C(=O)CC(C(=O)O)C12CCN(Cc1cc(Cl)ccc1F)CC2 (stereo unspecified) | 8.5% |
| Fc1ccc(N2CCCN(Cc3ccc(-c4cc[nH]n4)o3)CC2)cc1 | -0.367% |
| COc1cccc2ccc(CN3CCN(c4ncccc4C)CC3)nc12 | -7.71% |
| Cc1c[nH]c(C(=O)N2C[C@H]3CC[C@@H]2CN(Cc2cscn2)C3)n1 | -15.6% |
| COCC(Nc1ncnc2sc(C(=O)O)c(C)c12)c1ccnn1C (stereo unspecified) | 0.588% |
| OC(c1cccs1)C1CCN(c2ncccn2)CC1 (stereo unspecified) | -8.6% |
| CN(Cc1nc(C2CC2)no1)C(=O)C1COc2ccccc2C1 (stereo unspecified) | -0.624% |
| CN(C)C(=O)N1C[C@@H]2CC[C@H](C1)N(Cc1nnc(C3CC3)o1)C2 | -16.8% |
| CSCCCNC(=O)C(c1ccccc1C)N(C)C (stereo unspecified) | -6.07% |
| NC(=O)c1cccc(CC2CCN(C(=O)CCc3cccc(F)c3)C2)c1 (stereo unspecified) | -8.51% |
| CCc1cccc(NC(=O)CCN2CC=C(c3cnn(C)c3)CC2)c1 | -5.53% |
| CN(Cc1cccnc1)CC1CC12CCCC2 (stereo unspecified) | -5.63% |
| Cc1nn(CCC(=O)N2CCCC(OCc3cccnc3)C2)c(C)c1C (stereo unspecified) | -6.47% |
| Cn1nnnc1SCCNC(=O)CC1CCc2ccccc21 (stereo unspecified) | -1.31% |
| COc1cccc(CC(C)NCC(=O)Nc2ccccc2C)c1 (stereo unspecified) | -0.681% |
| O=C(NCC1CCCO1)c1cc(COc2ccccc2F)[nH]n1 (stereo unspecified) | -3.44% |
| CNc1nc(C(=O)N2CCCCC2c2ccc(CN(C)C)cc2)cs1 (stereo unspecified) | 1.16% |
| O=C(NCc1n[nH]c2c1CCCCC2)c1cnn2c1CCCC2 | -12.2% |
| Cc1ccc(C)c(N2CCN(CC3(O)CCNC3)CC2)c1 (stereo unspecified) | -0.198% |
| Cc1nc(CCCNC(=O)C2CC(=O)N(C3CCCC3)C2)sc1C (stereo unspecified) | -9.24% |

| Compound | cytotoxicity at 70.5 h |
| --- | --- |
| COc1cc2c(cc1CN1C[C@@H](CN3CCOCC3)[C@@H](CO)C1)CCC2 | -2.99% |
| CC(C)c1nccc(CN2CCCC(O)(CN3CCCC3)C2)n1 (stereo unspecified) | -0.735% |
| O=C(c1ccc(S(=O)(=O)NCCc2ccccn2)cc1)N1CCCC1 | -14.8% |
| CSCc1noc(CN2CCC3(CC2)CC(=O)N(CC(C)C)C3)n1 | -2.72% |
| CC[C@H](N)C(=O)Nc1nn(CC(F)(F)F)c2cc(OC(C)C)ccc12 | -14.2% |
| O=C1CSc2ccccc2N1Cc1noc(C2CCCO2)n1 (stereo unspecified) | -5.67% |
| CCc1cc(CN(C)C(=O)CN2CC(Cc3ccccc3)CC2=O)on1 (stereo unspecified) | 2.31% |
| CN(C(=O)c1cnc(N2CCOCC2)nc1)C1Cc2ccccc2C1 | -12.4% |
| COc1cc(CN2CCCC2)ccc1OC12CCCN(CC1)C2 (stereo unspecified) | -18.9% |
| Cc1nc(CN2CCCC(CCc3ccccc3C(F)(F)F)C2)co1 (stereo unspecified) | 22.6% |
| Cc1nc(CCNC(=O)c2cc(C(C)C)nn2C)sc1C | -10.1% |
| CCN(CCn1cccn1)C(=O)CN1C(=O)OC[C@@H]1C(C)C | -3.13% |
| Cc1nc(CC2CCN(C(=O)C(c3ccccc3C)N(C)C)CC2)no1 (stereo unspecified) | -13.1% |
| CN(Cc1ccc(C(=O)NCC2COCCO2)c(=O)[nH]1)CC(C)(C)C (stereo unspecified) | 6.27% |
| CC1=C(C(=O)N(C)Cc2n[nH]c3c2CCCCC3)C(C)NC(=O)N1 (stereo unspecified) | 31% |
| Cc1ccc(N2CCC(c3nccn3Cc3cscn3)CC2)nn1 | 0.241% |
| CCNC(=O)[C@@H]1C[C@@H](NC(=O)c2cnc[nH]c2=O)CN1Cc1ccsc1 | -2.36% |
| CC(=O)N1CCN(C(=O)Nc2ccccc2Cl)[C@H]2CS(=O)(=O)C[C@H]21 | -16% |
| CCc1nccn1CCC(=O)N1CC(=O)N(c2ccccc2C)CC1C (stereo unspecified) | -7.9% |
| O=C(NCc1nc(NC2CCCC2)c2cc(Cl)ccc2n1)c1ccoc1 | 5.65% |
| COc1ccc(-c2nccn2C[C@@H]2CCCN3CCCC[C@H]23)cc1 | 1.3% |
| CC(C)c1cc(C(=O)N2CCCC2c2nc(-c3ccccc3)no2)[nH]n1 (stereo unspecified) | -0.676% |
| Cc1nc[nH]c1-c1nccn1CCN1CCCOC1=O | -5.03% |

| Compound | cytotoxicity at 70.5 h |
| --- | --- |
| COc1cc(OC)nc(N2CCCC(c3nccn3CCN(C)C)C2)n1 (stereo unspecified) | 30.4% |
| CCCN1CCN(Cc2cccc(OC(C)C)c2)[C@H]2CS(=O)(=O)C[C@H]21 | 12.5% |
| CNc1ncccc1C(=O)N1CCN(Cc2ccc(C)cc2)C(=O)C1C (stereo unspecified) | -13.8% |
| Cc1nc2c(c(=O)n1C)CCN(C(=O)Cn1cccc1)CC2 | -4.24% |
| CCCc1nnc(N2CCC(N3CCN(CCO)CC3)CC2)o1 | -5.69% |
| CN(Cc1cnn(C)c1)Cc1nc(CCc2ccccc2)no1 | -4.56% |
| CN(Cc1ccc(-n2cccn2)cc1)C(=O)CCC(F)(F)F | 26.9% |
| CC(C)[C@H]1CN(CCCO)C[C@@H]1NC(=O)CCS(C)(=O)=O | -3.16% |
| CCCn1cc(C(=O)NC(CC(=O)O)c2ccccc2F)c(C)n1 (stereo unspecified) | 6.87% |
| CCC(CC)n1nc(C)cc1NC(=O)CC1CCOCC1 | -8.16% |
| CSCc1nc(CNC(=O)C2CCCN(C(=O)N(C)C)C2)cs1 (stereo unspecified) | -7.03% |
| Cc1cccc(C)c1OC1CN(Cc2cnc(-c3ccco3)nc2)C1 | -6.4% |
| C[C@@H]1CN(C(=O)C2CCS(=O)(=O)CC2)C[C@]1(C)O | -8.15% |
| CSCCCN(CCN1CCOCC1)Cc1ccco1 | -9.79% |
| CO[C@H]1CN(C(=O)c2ccc(-c3ccccc3)[nH]2)CC[C@H]1N | -10.1% |
| CSCCNC(=O)C1CCC(=O)N(C2CCCC2)C1 (stereo unspecified) | 0.162% |
| COc1cc(C)ccc1OCc1nc(C(=O)N2CCCNC(=O)C2)co1 | -5.88% |
| NCCc1nc(N(Cc2nccs2)C2CC2)c2ccccc2n1 | 37.2% |
| Cc1c(-c2ccccc2)ncn1CCCNc1cccnc1 | -4.84% |
| Cn1nc(C(C)(C)C)cc1NC(=O)Cn1ccnc1 | -10.5% |
| CC(C)c1cncnc1-c1cc(F)cc2c1OC(CN)C2 (stereo unspecified) | -1.8% |
| CC(C)c1cc(C(=O)N(C)C(C)c2nccs2)no1 (stereo unspecified) | -7.34% |
| O=C(CN1CCc2onc(-c3ccccc3F)c2C1)NC1CC1 | -9.25% |

| Compound | cytotoxicity at 70.5 h |
| --- | --- |
| COc1cc(F)ccc1C(C(=O)O)N1CCN(C2CCCCC2)CC1 (stereo unspecified) | -4.9% |
| NC(=O)CN1CCCC(C(=O)N2CCC(O)(c3ccccc3)CC2)C1 (stereo unspecified) | 31% |
| CC(C)(NC(=O)c1coc(COc2cccc(F)c2)n1)C(N)=O | -8.32% |
| CC(C)N1CCC(CC(=O)NCC2OCCc3ccccc32)CC1 (stereo unspecified) | -9.87% |
| COC(=O)C(CO)NC(=O)c1cn(Cc2ccccc2F)nn1 (stereo unspecified) | -8.74% |
| Cc1ccc2nc(C(=O)N3CCC(CCn4cccn4)CC3)cn2c1 | 16% |
| CC[C@@]1(O)CCN(C(=O)CCSCc2ccc(F)cc2)C[C@H]1O | 14.3% |
| CCc1noc(C2CCCCN2C(=O)c2ccccc2)n1 (stereo unspecified) | -1.29% |
| COc1ccc2c(c1)OCC(CNC(=O)NC(C)(C)C)C2 (stereo unspecified) | -0.00962% |
| COc1cc(Cl)cc(CN2CCCC(N3CCCC3)C2)c1OC (stereo unspecified) | -14.7% |
| O=C(Cc1ccsc1)N1CCC(c2ccncc2)CC1 | -13.6% |
| CN(C)CCO[C@H]1C[C@@H](O)C12CCN(c1cnccn1)CC2 | -6.05% |
| CSc1ncc(CNC(C)c2cnn(-c3ccccc3)c2C)cn1 (stereo unspecified) | -2.21% |
| CC(C)[C@@H]1CN(CCOc2ccccc2)C[C@H]1NS(=O)(=O)N(C)C | -5.28% |
| CN(C)C(=O)N1CCN(CCCOc2ccccc2)[C@H]2CS(=O)(=O)C[C@H]21 | -5.64% |
| O=C1CO[C@@H]2CN(CC3CC3)C[C@H]2N1Cc1cccc(F)c1 | 14.4% |
| COc1ccc(CN2CCCn3cnc(COC(C)C)c3C2)cc1 | 23.2% |
| CN1CC(=O)N(c2ccccc2)CC12CCN(S(C)(=O)=O)C2 (stereo unspecified) | 20.4% |
| Cc1nc(CN2C[C@@H]3CN(C(=O)c4ccco4)C[C@@H]3C2=O)cs1 | -3.99% |
